Structures can show the parent of a compound that is named as a salt.
Tests used:
[1] = pH at saturation
[2] = tested on: rat; conditions: oral; cited from earlier work
[3] = tested on: hyperlipidemia-induced rats; test: Effect on blood lipid, oral administration for 1 week to hyperlipidemia-induced rats (blood biochemical tests); conditions: 500 mg/kg oral for 1 week, average ± standard deviation
[4] = Water content with Karl-Fisher moisture meter after exposure to temperature/relative humidity (hygroscopicity, hydrate stability)
[5] = tested on: rabbit; conditions: oral; cited from earlier work

Compound	Saturation pH [1]	ALT [3] [IU/L]	AST [3] [IU/L]	BUN [3] [mg/dL]	CHO (Cholesterol) [3] [mg/dL]	CRE [3] [mg/dL]	HDL [3] [mg/dL]	LDL [3] [mg/dL]	TG (Triglyceride) [3] [mg/dL]	water content ([4]; 40° C., 75% R.H., day 0) [wt %]	water content ([4]; 40° C., 75% R.H., day 1) [wt %]	water content ([4]; 40° C., 75% R.H., day 2) [wt %]	water content ([4]; 40° C., 75% R.H., day 5) [wt %]	water content ([4]; 60° C., 15% R.H., day 0) [wt %]	water content ([4]; 60° C., 15% R.H., day 1) [wt %]	water content ([4]; 60° C., 15% R.H., day 2) [wt %]	water content ([4]; 60° C., 15% R.H., day 5) [wt %]	further results
CN(C)C(=N)N=C(N)N.O=C(O)CCCC(=O)O [Metformin glutarate, metformin (2:1) glutarate]	10.200	–	–	–	–	–	–	–	–	–	–	–	–	–	–	–	–	–
O=C(O)CCCC(=O)O [glutaric acid]	–	–	–	–	–	–	–	–	–	–	–	–	–	–	–	–	–	LD50 (50% lethal dose) [2]: LD50 6000 mg/kg
CN(C)C(=N)NC(=N)N [Metformin malate, metformin (2:1) malate]	3.950	–	–	–	–	–	–	–	–	–	–	–	–	–	–	–	–	–
metformin (2:1) malonate [Metformin malonate]	–	49.0 ± 7.0	136.6 ± 11.6	15.3 ± 0.9	238.2 ± 16.4	0.5 ± 0.0	40.4 ± 1.4	168.3 ± 13.7	50.3 ± 7.9	5.143	5.403	5.288	5.376	5.143	5.222	5.219	5.184	–
CN(C)C(=N)N=C(N)N [Metformin hydrochloride, metformin hydrochloride, reference compound]	2.892	49.8 ± 4.8	126.9 ± 8.4	13.6 ± 0.4	277.1 ± 21.8	0.5 ± 0.0	42.5 ± 1.0	198.3 ± 18.5	37.3 ± 1.5	0.080	0.069	0.053	0.054	0.080	0.044	0.047	0.056	–
Cl [Hydrochloric acid]	–	–	–	–	–	–	–	–	–	–	–	–	–	–	–	–	–	LD50 (50% lethal dose) [5]: LD50 900 mg/kg

— patent US8076377B2, “N,N-dimethyl imidodicarbonimidic diamide dicarboxylate, method for producing the same and pharmaceutical compositions comprising the same” (Hanall Pharmaceutical Company, Ltd., priority 2007, dated 2011)
